From the supplement of paper PMC10307832

Experiments:
Experiment in all cases: relative viability (nuclei count vs DMSO), 5 days (fraction); higher = more cells survive
Dinaciclib + Trametinib = compound: CCc1cnn2c(NCc3ccc[n+]([O-])c3)cc(N3CCCC[C@H]3CCO)nc12 [Dinaciclib] + CC(=O)Nc1cccc(-n2c(=O)n(C3CC3)c(=O)c3c(Nc4ccc(I)cc4F)n(C)c(=O)c(C)c32)c1 [Trametinib] (partner 0.02 µM)
Summary of the method: (§1)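 Lung cancer cell lines were pin-tool dosed in 1536-well plates on the day after seeding, with either a lone drug or a fixed anchor-drug dose plus five library-drug doses (not always all listed) in √10 steps. Nuclei were counted on 4× images after 5 days. Relative viability is the ratio of treated-well to vehicle-well nuclei counts, with each value a median of duplicate plates.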

Dinaciclib + Pictilisib = compound: CCc1cnn2c(NCc3ccc[n+]([O-])c3)cc(N3CCCC[C@H]3CCO)nc12 [Dinaciclib] + CS(=O)(=O)N1CCN(Cc2cc3nc(-c4cccc5[nH]ncc45)nc(N4CCOCC4)c3s2)CC1 [Pictilisib] (partner 1 µM)
Summary of the method: as §1

Dinaciclib + Palbociclib = compound: CCc1cnn2c(NCc3ccc[n+]([O-])c3)cc(N3CCCC[C@H]3CCO)nc12 [Dinaciclib] + CC(=O)c1c(C)c2cnc(Nc3ccc(N4CCNCC4)cn3)nc2n(C2CCCC2)c1=O [Palbociclib] (partner 0.5 µM)
Summary of the method: as §1

Dinaciclib + Lapatinib = compound: CCc1cnn2c(NCc3ccc[n+]([O-])c3)cc(N3CCCC[C@H]3CCO)nc12 [Dinaciclib] + CS(=O)(=O)CCNCc1ccc(-c2ccc3ncnc(Nc4ccc(OCc5cccc(F)c5)c(Cl)c4)c3c2)o1 [Lapatinib] (partner 2 µM)
Summary of the method: as §1

Dinaciclib + Luminespib = compound: CCc1cnn2c(NCc3ccc[n+]([O-])c3)cc(N3CCCC[C@H]3CCO)nc12 [Dinaciclib] + CCNC(=O)c1noc(-c2cc(C(C)C)c(O)cc2O)c1-c1ccc(CN2CCOCC2)cc1 [Luminespib] (partner 0.01 µM)
Summary of the method: as §1

Cell Line	relative viability (Dinaciclib + Trametinib; first compound 0.009487 µM)	relative viability (Dinaciclib + Trametinib; first compound 0.03 µM)	relative viability (Dinaciclib + Trametinib; first compound 0.09487 µM)	relative viability (Dinaciclib + Trametinib; first compound 0.3 µM)	relative viability (Dinaciclib + Pictilisib; first compound 0.009487 µM)	relative viability (Dinaciclib + Pictilisib; first compound 0.03 µM)	relative viability (Dinaciclib + Pictilisib; first compound 0.09487 µM)	relative viability (Dinaciclib + Pictilisib; first compound 0.3 µM)	relative viability (Dinaciclib + Palbociclib; first compound 0.009487 µM)	relative viability (Dinaciclib + Palbociclib; first compound 0.03 µM)	relative viability (Dinaciclib + Palbociclib; first compound 0.09487 µM)	relative viability (Dinaciclib + Palbociclib; first compound 0.3 µM)	relative viability (Dinaciclib + Lapatinib; first compound 0.009487 µM)	relative viability (Dinaciclib + Lapatinib; first compound 0.03 µM)	relative viability (Dinaciclib + Lapatinib; first compound 0.09487 µM)	relative viability (Dinaciclib + Lapatinib; first compound 0.3 µM)	relative viability (Dinaciclib + Luminespib; first compound 0.009487 µM)	relative viability (Dinaciclib + Luminespib; first compound 0.03 µM)	relative viability (Dinaciclib + Luminespib; first compound 0.09487 µM)	relative viability (Dinaciclib + Luminespib; first compound 0.3 µM)
HCC-78	0.631	0.402	0.229	0.183	0.197	0.226	0.105	0.11	0.432	0.374	0.253	0.3	0.75	0.806	0.125	0.136	–	–	–	–
HCC-366	0.274	0.0898	0.0214	0.0233	0.196	0.0396	0.0372	0.044	0.272	0.0382	0.0205	0.0359	0.557	0.0225	0.0184	0.0226	–	–	–	–
HCC-827	0.511	0.186	0.12	0.135	0.998	0.446	0.242	0.223	0.387	0.169	0.14	0.121	0.191	0.183	0.149	0.132	0.805	0.108	0.103	0.107
HOP-62	0.492	0.361	0.0804	0.0808	0.583	0.092	0.0651	0.0405	0.465	0.187	0.071	0.0775	0.917	0.281	0.0612	0.0566	0.778	0.193	0.0765	0.0749
IA-LM	–	–	–	–	0.327	0.0323	0.0279	0.0329	–	–	–	–	0.73	0.0584	0.053	0.0435	–	–	–	–
LC-2-ad	0.921	0.405	0.148	0.15	0.305	0.071	0.0698	0.0506	0.411	0.204	0.114	0.136	0.9	0.0784	0.058	0.0576	0.877	0.23	0.23	0.178
LCLC-97TM1	0.216	0.0795	0.0706	0.0687	0.209	0.116	0.109	0.0963	0.18	0.0731	0.0753	0.0729	0.662	0.173	0.0769	0.0958	0.459	0.111	0.116	0.109
LCLC-103H	0.674	0.659	0.255	0.249	0.572	0.463	0.147	0.143	0.402	0.441	0.208	0.192	–	–	–	–	1.08	0.473	0.12	0.102
LK-2	0.574	0.152	0.133	0.125	0.358	0.23	0.21	0.214	0.543	0.109	0.107	0.0837	0.712	0.182	0.102	0.176	0.165	0.139	0.166	0.162
